In patent US12037344B2, “NLRP3 modulators” (INNATE TUMOR IMMUNITY, INC., priority 2018, dated 2024):
pEC50: −log10 of the molar value. Read-outs that look alike come from different tables or passages of the source.

Assays:
TLR8 = biological target: T1, TLR8 (Homo sapiens, UniProt Q9NR97); test: In vitro human TLR8 binding reporter assay (HEK-Blue, NF-kB/AP1-inducible SEAP); type: cell-based; conditions: read-out: TLR8 Agonist EC50
T1 construct: human HEK-Blue cells co-expressing a TLR7 or TLR8 gene
T1 sequence (Q9NR97 27-1041): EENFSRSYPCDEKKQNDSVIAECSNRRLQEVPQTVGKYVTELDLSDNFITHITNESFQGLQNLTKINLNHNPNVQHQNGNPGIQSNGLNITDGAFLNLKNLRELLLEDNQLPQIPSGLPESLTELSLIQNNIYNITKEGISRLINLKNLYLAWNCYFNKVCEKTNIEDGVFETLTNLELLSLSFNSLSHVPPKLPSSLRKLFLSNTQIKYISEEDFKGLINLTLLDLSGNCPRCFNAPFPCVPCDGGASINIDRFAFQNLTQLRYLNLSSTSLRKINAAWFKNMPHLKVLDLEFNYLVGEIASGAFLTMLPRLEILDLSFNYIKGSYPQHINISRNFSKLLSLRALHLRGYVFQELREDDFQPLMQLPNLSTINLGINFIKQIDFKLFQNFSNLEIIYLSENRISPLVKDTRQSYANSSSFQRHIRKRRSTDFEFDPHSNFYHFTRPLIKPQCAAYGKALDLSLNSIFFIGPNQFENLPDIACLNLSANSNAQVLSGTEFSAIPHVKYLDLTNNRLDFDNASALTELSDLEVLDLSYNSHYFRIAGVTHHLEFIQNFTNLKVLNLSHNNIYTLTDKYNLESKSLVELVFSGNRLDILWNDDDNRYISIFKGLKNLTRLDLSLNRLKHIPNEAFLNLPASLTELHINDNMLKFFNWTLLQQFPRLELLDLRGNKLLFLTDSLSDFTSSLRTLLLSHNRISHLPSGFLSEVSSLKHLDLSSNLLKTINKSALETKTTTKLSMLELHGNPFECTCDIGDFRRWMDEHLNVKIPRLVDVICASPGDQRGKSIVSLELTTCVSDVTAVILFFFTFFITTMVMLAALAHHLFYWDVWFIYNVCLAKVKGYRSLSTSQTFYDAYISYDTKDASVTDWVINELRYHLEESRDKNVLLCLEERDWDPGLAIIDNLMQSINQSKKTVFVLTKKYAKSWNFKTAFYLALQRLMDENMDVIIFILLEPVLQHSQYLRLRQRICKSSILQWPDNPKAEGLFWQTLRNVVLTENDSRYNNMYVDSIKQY
Method in brief: (§1)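 HEK-Blue cells expressing human TLR7 or TLR8 with NF-kB/AP1-inducible SEAP reporter, plated 24 h, then compound-treated 18 h at 37° C, 5% CO2. EC50 normalized to 100% Ymax set by 50 μM reference standard.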

THP-1 cells = test: Measurement of IL-1β production, hTRF protocol (second alternative procedure), THP-1 cells; type: cell-based, human
Method in brief: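 Compounds, dilution series starting at a final 10 μM, were incubated 2 hours at 37° C with PMA-differentiated THP-1 cells (50 ng/ml overnight; 50,000 cells/well, 2% FBS RPMI). Released IL-1β quantified in supernatant by hTRF kit with 1:40 antibody dilution, 4° C overnight, 665/615 nm ratio.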

TLR7 = biological target: T2, TLR7 (Homo sapiens, UniProt Q9NYK1); test: In vitro human TLR7 binding reporter assay (HEK-Blue, NF-kB/AP1-inducible SEAP); type: cell-based; conditions: read-out: TLR7 Agonist EC50
T2 construct: human HEK-Blue cells co-expressing a TLR7 or TLR8 gene
T2 sequence (Q9NYK1 27-1049): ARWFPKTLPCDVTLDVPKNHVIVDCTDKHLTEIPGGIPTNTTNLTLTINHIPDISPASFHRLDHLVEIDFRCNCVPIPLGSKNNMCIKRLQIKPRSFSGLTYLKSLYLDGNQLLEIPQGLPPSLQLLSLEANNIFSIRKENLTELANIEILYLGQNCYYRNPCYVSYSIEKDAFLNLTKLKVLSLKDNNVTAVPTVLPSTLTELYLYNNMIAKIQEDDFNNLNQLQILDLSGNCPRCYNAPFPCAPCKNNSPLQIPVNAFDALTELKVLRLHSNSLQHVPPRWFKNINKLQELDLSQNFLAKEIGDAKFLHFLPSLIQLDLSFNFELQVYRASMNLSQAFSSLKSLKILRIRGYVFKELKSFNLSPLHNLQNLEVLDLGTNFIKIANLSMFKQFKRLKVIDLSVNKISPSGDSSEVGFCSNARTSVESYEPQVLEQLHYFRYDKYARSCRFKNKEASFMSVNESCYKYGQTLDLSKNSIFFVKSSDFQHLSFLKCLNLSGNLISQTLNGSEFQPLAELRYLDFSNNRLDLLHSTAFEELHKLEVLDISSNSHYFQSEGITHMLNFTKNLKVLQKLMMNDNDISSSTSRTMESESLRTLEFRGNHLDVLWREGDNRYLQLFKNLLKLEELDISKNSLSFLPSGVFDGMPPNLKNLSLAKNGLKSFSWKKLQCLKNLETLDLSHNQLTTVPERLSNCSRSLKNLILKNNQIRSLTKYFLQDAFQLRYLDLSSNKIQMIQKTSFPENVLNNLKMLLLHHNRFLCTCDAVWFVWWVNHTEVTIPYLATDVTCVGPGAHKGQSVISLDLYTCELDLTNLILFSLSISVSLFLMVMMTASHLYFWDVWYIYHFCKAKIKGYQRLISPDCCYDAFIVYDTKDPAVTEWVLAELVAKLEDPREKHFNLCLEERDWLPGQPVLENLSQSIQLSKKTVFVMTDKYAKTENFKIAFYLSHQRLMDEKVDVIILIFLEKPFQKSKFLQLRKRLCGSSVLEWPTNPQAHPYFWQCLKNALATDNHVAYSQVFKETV
Method in brief: as §1

[1] = Homo sapiens, THP-1, IL-1β production, human cells, read-out: NLRP3 hILIB EC50
[2] = Homo sapiens, THP-1, IL-1β production, human, read-out: NLRP3 hILIB EC50
[3] = IL-1β production, human, read-out: NLRP3 hILIB EC50
[4] = Homo sapiens, THP-1, read-out: NLRP3 hILIB EC50

SMILES	pEC50 (TLR8; activity range)	pEC50 (THP-1 cells; [1])	pEC50 (TLR7; activity range)	pEC50 (TLR8; activity range class)	pEC50 (THP-1 cells; [2])	pEC50 (TLR7; activity range class)	pEC50 (THP-1 cells; [3])	pEC50 (THP-1 cells; [4])
CC(Cn1cc2c(N)nc3cc(-c4cc[nH]n4)ccc3c2n1)C(=O)N1CC(O)C1 (stereo not drawn) [Example 613]	< 4.00	4.63	< 4.00					
CN(C)C(=O)Cn1cc2c(N)nc3cc(-n4cccn4)ccc3c2n1 [Example 553]	< 4.00	5.68	< 4.00					
Nc1nc2cc(-c3cc[nH]n3)ccc2c2[nH]c(CN3CC4(CCOC4)C3)cc12 [Example 492]	< 4.00	6.12	< 4.00					
Nc1nc2cc(-c3cc[nH]n3)ccc2c2cn(CC(=O)N3CCCC3)nc12 [Example 528]	< 4.00	6.29	< 4.00					
Nc1nc2cc(-c3cc[nH]n3)ccc2c2nn([C@H]3CC[C@H](O)CC3)cc12 [Example 393]				< 4.00	5.76	< 4.00		
Nc1nc2cc(-c3cc[nH]n3)ccc2c2cn(CCNCc3cccnc3)nc12 [Example 110]				4.70 to 6.00	4.88	4.00 to 4.70		
COC(C)Cn1cc2c(N)nc3cc(-c4cc[nH]n4)ccc3c2n1 (single isomer, unassigned) [Example 346]				< 4.00		< 4.00	6.19	
CN(C(=O)Cn1cc2c(n1)c(N)nc1cc(-c3cc[nH]n3)ccc12)[C@H]1CCOC1 [Example 549]	< 4.00	5.40	< 4.00					
CNC(=O)C(C)n1cc2c(N)nc3cc(-c4ccn[nH]4)ccc3c2n1 (stereo not drawn) [Example 560]	< 4.00	6.44	< 4.00					
Nc1nc2cc(-c3cc[nH]n3)ccc2c2cn(CCCNC(=O)c3ccccc3)nc12 [Example 123, N-{3-[4-amino-7-(1H-pyrazol-3-yl)-2H-pyrazolo[3,4-c]quinolin-2-yl]propyl}benzamide]				< 4.00		< 4.00		5.04
CC(C)(C(=O)NCC(F)F)n1cc2c(N)nc3cc(-c4cc[nH]n4)ccc3c2n1 [Example 514]	< 4.00	5.74	< 4.00					
Nc1nc2cc(-c3cc[nH]n3)ccc2c2nn(Cc3ccnc(CO)c3)cc12 [Example 409]	< 4.00	5.83	< 4.00					
Cc1nc(C(=O)NCCc2cc3c(N)nc4cc(-c5cc[nH]n5)ccc4c3[nH]2)co1 [Example 493]	< 4.00	6.74	< 4.00					
Nc1nc2cc(-c3cc[nH]n3)ccc2c2[nH]c(CN3CC[C@@H](O)C3)cc12 [Example 480]	< 4.00	6.59	< 4.00					
Nc1nc2cc(-c3cc[nH]n3)ccc2c2[nH]c(CCNC(=O)C3CCCO3)cc12 (stereo not drawn) [Example 414]	< 4.00	5.55	< 4.00					
Nc1nc2cc(-c3cc[nH]n3)ccc2c2cn(CCCNC(=O)c3ccccn3)nc12 [Example 124]				< 4.00	5.01	< 4.00		
CC(=O)NCc1cc2c(N)nc3cc(-c4ccn[nH]4)ccc3c2[nH]1 [Example 443]	< 4.00	6.64	< 4.00					

SMILES	pEC50 (TLR8; activity range)	pEC50 (THP-1 cells; [1])	pEC50 (TLR7; activity range)	pEC50 (TLR8; activity range class)	pEC50 (THP-1 cells; [2])	pEC50 (TLR7; activity range class)	pEC50 (THP-1 cells; [3])	pEC50 (THP-1 cells; [4])
Nc1nc2cc(-c3cc[nH]n3)ccc2c2cn(CCNC(=O)c3cccc(F)n3)nc12 [Example 55]				4.00 to 4.70	6.41	4.00 to 4.70		
Nc1nc2cc(-c3cc[nH]n3)ccc2c2cn(CCN3CCOCC3)nc12 [Example 20, 2-[2-(morpholin-4-yl)ethyl]-7-(1H-pyrazol-3-yl)-2H-pyrazolo[3,4-c]quinolin-4-amine]				< 4.00		4.00 to 4.70		5.97
CC(C)(N)Cn1cc2c(N)nc3cc(-c4ccn[nH]4)ccc3c2n1 [Example 267]				< 4.00	5.97	< 4.00		
Nc1nc2cc(-c3cc[nH]n3)ccc2c2[nH]c(CN3CCCC3)cc12 [Example 476]	< 4.00	6.29	< 4.00					
Nc1nc2cc(-c3ccn[nH]3)ccc2c2nn(CCCNS(=O)(=O)C3CC3)cc12 [Example 589]	< 4.00	5.58	< 4.00					
CC(C)C(=O)NCCn1cc2c(n1)c(N)nc1cc(-c3cc[nH]n3)ccc12 [Example 34]				< 4.00	5.05	4.00 to 4.70		
CC[C@@H](O)Cn1ncc2c(N)nc3cc(-c4cc[nH]n4)ccc3c21 [Example 400]	< 4.00	5.91	< 4.00					
Cn1cnc2c(C(=O)NCCn3cc4c(n3)c(N)nc3cc(-c5cc[nH]n5)ccc34)cccc21 [Example 100]				< 4.00	5.78	< 4.00		
Nc1nc2cc(-c3cc[nH]n3)ccc2c2cn(CC(=O)N[C@@H]3CCOC3)nc12 [Example 533]	< 4.00	5.64	< 4.00					
CNC(=O)C(C)Cn1cc2c(N)nc3cc(-c4cc[nH]n4)ccc3c2n1 (stereo not drawn) [Example 612]	< 4.00	6.37	< 4.00					
CC(C)(O)Cn1cc2c(n1)c(N)nc1cc(-c3ccn[nH]3)ccc12 [Example 450]	< 4.00	6.28	< 4.00					
COCC(C)n1cc2c(N)nc3cc(-c4cc[nH]n4)ccc3c2n1 (single isomer, unassigned) [Example 338]				< 4.00		< 4.00	6.41	
CC(=O)NC(C)Cn1cc2c(N)nc3cc(-n4cccn4)ccc3c2n1 (stereo not drawn) [Example 424]	< 4.00	5.49	< 4.00					
Nc1nc2cc(-c3cc[nH]n3)ccc2c2cn(CCNC(=O)c3ccc(F)cn3)nc12 [Example 31, N-{2-[4-amino-7-(1H-pyrazol-3-yl)-2H-pyrazolo[3,4-c]quinolin-2-yl]ethyl}-5-fluoropyridine-2-carboxamide]				4.70 to 6.00	6.82	4.00 to 4.70		
Cc1cnc(C(=O)NCCn2cc3c(n2)c(N)nc2cc(-c4cc[nH]n4)ccc23)cn1 [Example 52]				< 4.00	6.21	< 4.00		
Nc1nc2cc(-c3cc[nH]n3)ccc2c2nn(CC3CC(F)(F)C3)cc12 [Example 335]				< 4.00	6.41	< 4.00		
